Measured values as given in US10006918B2, “Fluorogenic hydrazine-substituted compounds” (LIFE TECHNOLOGIES CORPORATION, priority 2008, dated 2018).

Test: Aldehyde reactivity of compounds: fluorogenic reaction with acetaldehyde in phosphate buffer, excitation/emission spectra
Format: physicochemical
Protocol: Spectra were taken at pH 6 in a 50 mM phosphate buffer solution.
Spectra were taken at pH 6 in 50 mM phosphate buffer solution.
A sample of Compound 2 (5 mg, 0.0126 mmol) is dissolved in 10 ml of pH 6.5, 50 mmol phosphate buffer solution. To this non-fluorescent solution, is added 25 ul, 1 mol solution of acetaldehyde in water at room temperature. […] The reaction is complete in 10 minutes to give a stable […] analog. Its absorption max is at 548 nm and emission max is at 580 nm (see FIGS. 3A and B).

[1] = after reaction with acetaldehyde, pH 6.5 phosphate buffer
[2] = aldehyde-reacted, pH 6, 50 mM phosphate buffer, FIG. 3B

In the case of NN=c1ccc2c(-c3ccccc3S(=O)(=O)O)c3ccc(NN)cc3oc-2c1 [Compound 2, 2-(6-hydrazinyl-3-hydrazono-3H-xanthen-9-yl)benzenesulfonate], the “fluorescence of solution after addition of acetaldehyde” value (25 ul 1 mol acetaldehyde in water, room temperature, pH 6.5 phosphate buffer, within a few minutes) is reported as “highly fluorescent”, the “change of fluorescence upon reaction with an aldehyde (emission spectra before and after contact with acetaldehyde)” value (acetaldehyde, pH 6, 50 mM phosphate buffer, FIG. 1) is reported as “significant fluorescent increase” and the “absorption max of acetaldehyde reaction product” value [1] is reported as 548 nm. For the same molecule, the “emission max of acetaldehyde reaction product” value [1] was 580 nm, the “emission spectra maximum, aldehyde-reacted compound” value [2] was 581 nm and the “excitation maximum, aldehyde-reacted compound” value [2] was 548 nm. The “time to complete reaction with acetaldehyde” value (room temperature, pH 6.5, 50 mmol phosphate buffer) was 10 min and the “excitation maximum, un-reacted compound” value (un-reacted dye, FIG. 3A) was 519 nm.
